Type in all cases: biochemical
For experiment [1], the target named is PKR R510Q (Homo sapiens, UniProt P30613, R510Q). As to the kind of experiment: PKR R510Q Single Point Percent Activation Assay. Conditions: compound at 1 μM; for activation at 1 µM: read-out: % Act. R510Q. The procedure:
PKR R510Q Single Point Percent Activation Assay
(§1) A compound described herein was diluted with DMSO and tested at 1 μM concentration. The enzyme was diluted in 1× Buffer: (100 mM KCl, 50 mM Tris 7.5, 5 mM MgCl2, 1 mM DTT, 0.03% BSA). 2 μL of compound solution was first added into wells, and then 180 μL of enzyme solution was added. Assays were assembled except for ADP, and plates were stored for 60 minutes at RT. 20 μL ADP was added to start the assay and assay output was evaluated using OD340 at SpectraMax. The assay was run at room temperature.
PKR R510Q (40 ng/well), Tris pH 7.5 (50 mM), KCl (100 mM), MgCl2 (5 mM), ADP (0.2 mM), PEP (0.11 mM), NADH (180 μM), LDH (0.5 units, Sigma 59023), DTT (1 mM) and BSA (0.03%).

Experiment [2] has as its target PKR R532W (Homo sapiens, UniProt P30613, R532W). As to the kind of experiment: PKR R532W Single Point Percent Activation Assay. Conditions: compound at 1 μM; for activation at 1 µM: read-out: % Act. R532W. The procedure: PKR R532W Single Point Percent Activation Assay
as §1
PKR R532W (100 ng/well), Tris pH 7.5 (50 mM), KCl (100 mM), MgCl2 (5 mM), ADP (0.36 mM), PEP (0.1 mM), NADH (180 μM), LDH (0.5 units, Sigma 59023), DTT (1 mM) and BSA (0.03%).

Experiment [3] deals with PKR wt (Homo sapiens, UniProt P30613). Kind of experiment: PKR WT Single Point Percent Activation Assay. Conditions: compound at 1 μM. The procedure: PKR WT Single Point Percent Activation Assay
PKR wt, sequence (P30613 whole entry): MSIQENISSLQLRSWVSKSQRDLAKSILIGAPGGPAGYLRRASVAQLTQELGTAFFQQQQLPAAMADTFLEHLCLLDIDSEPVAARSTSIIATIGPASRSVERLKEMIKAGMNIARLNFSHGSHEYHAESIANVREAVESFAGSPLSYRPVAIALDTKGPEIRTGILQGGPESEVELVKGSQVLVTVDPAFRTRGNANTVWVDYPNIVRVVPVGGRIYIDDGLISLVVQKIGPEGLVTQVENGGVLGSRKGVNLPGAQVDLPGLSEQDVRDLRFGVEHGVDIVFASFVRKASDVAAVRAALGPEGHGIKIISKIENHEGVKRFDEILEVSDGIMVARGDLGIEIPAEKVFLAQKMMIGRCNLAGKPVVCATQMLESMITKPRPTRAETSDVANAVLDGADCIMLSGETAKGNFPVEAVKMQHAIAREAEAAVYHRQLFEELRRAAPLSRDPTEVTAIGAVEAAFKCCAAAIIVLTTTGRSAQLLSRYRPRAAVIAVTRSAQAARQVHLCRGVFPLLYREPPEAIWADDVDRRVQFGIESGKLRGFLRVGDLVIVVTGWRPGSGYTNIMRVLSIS
as §1
PKR wt (100 ng/well), Tris pH 7.5 (50 mM), KCl (100 mM), MgCl2 (5 mM), ADP (0.48 mM), PEP (0.15 mM), NADH (180 μM), LDH (0.5 units, Sigma 59023), DTT (1 mM) and BSA (0.03%).

Experiment [4] concerns the target PKR T384W (Homo sapiens, UniProt P30613). Kind of experiment: PKR T384W Single Point Percent Activation Assay. Conditions: compound at 1 μM. The procedure: PKR T384W Single Point Percent Activation Assay
A compound described herein was diluted with DMSO and tested at 1 μM concentration. The enzyme was diluted in 1× Buffer: (100 mM KCl, 50 mM Tris 7.5, 5 mM MgCl2, 1 mM DTT, 0.03% BSA). 2 μL of compound solution was first added into wells, and then 180 μL enzyme solution was added. Assays were assembled except for ADP, and plates were stored for 60 minutes at RT. 20 μL ADP was added to start the assay and assay output was evaluated using OD340 at SpectraMax. The assay was run at room temperature.
PKR T384W soluble (300 ng/well), Tris pH 7.5 (50 mM), KCl (100 mM), MgCl2 (5 mM), ADP (0.08 mM), PEP (0.23 mM), NADH (180 μM), LDH (0.5 units, Sigma 59023), DTT (1 mM) and BSA (0.03%).

The structures appear in SMILES notation.

PKR R510Q, sequence (P30613 whole entry R510Q): as the sequence (P30613 whole entry) above, with R510Q counted along it
PKR T384W, sequence (P30613 whole entry T384M): as the sequence (P30613 whole entry) above, with T384M counted along it
PKR R532W, sequence (P30613 whole entry R532W): as the sequence (P30613 whole entry) above, with R532W counted along it

Take `O=C(c1ccc(NS(=O)(=O)c2cccc3cccnc23)cc1)N1CC(O)C1`: the activation at 1 µM in experiment [1], in experiment [2] and in experiment [3] was 101 to 500% each time. The “% Act. T384W” value in experiment [4] is “B (a % activation at 1 μM of from 101 to 500)”.
On to `CC1(O)CN(C(=O)c2ccc(NS(=O)(=O)c3cccc4cccnc34)cc2)C1`, for which the values for the activation at 1 µM in experiment [1], in experiment [2] and in experiment [3] were 101 to 500%, 1 to 100% and 101 to 500%, respectively. Moreover, the “% Act. T384W” value in experiment [4] is “B (a % activation at 1 μM of from 101 to 500)”.
On to `CC(C)NC(=O)OC1CN(C(=O)c2ccc(NS(=O)(=O)c3cccc4cccnc34)cc2)C1`, for which the activation at 1 µM in experiment [1], in experiment [2] and in experiment [3] was 101 to 500% each time. Besides, in experiment [4], the “% Act. T384W” value is given as “B (a % activation at 1 μM of from 101 to 500)”.
For the compound `C=CCNC(=O)NC1CN(C(=O)c2ccc(NS(=O)(=O)c3cccc4cccnc34)cc2)C1`, the activation at 1 µM in experiment [1], in experiment [2] and in experiment [3] was 101 to 500% in each case. For the same compound, the “% Act. T384W” value in experiment [4] is on record as “B (a % activation at 1 μM of from 101 to 500)”.
As for `Cc1cc(C(=O)N2CC(OCc3ccccc3)C2)ccc1NS(=O)(=O)c1cccc2cccnc12`, the results for the activation at 1 µM in experiment [1], in experiment [2] and in experiment [3] were 101 to 500%, 1 to 100% and 101 to 500%, respectively. For the same compound, the “% Act. T384W” value in experiment [4] is recorded as “B (a % activation at 1 μM of from 101 to 500)”.
Take `CN(Cc1ccccc1)C1CN(C(=O)c2ccc(NS(=O)(=O)c3cccc4cccnc34)cc2)C1`: the activation at 1 µM in experiment [1], in experiment [2] and in experiment [3] was 101 to 500% throughout. The “% Act. T384W” value in experiment [4] is given as “B (a % activation at 1 μM of from 101 to 500)”.
In the case of `Cc1cc(C(=O)N2CC(O)(c3ccccc3)C2)ccc1NS(=O)(=O)c1cccc2cccnc12`, the activation at 1 µM in experiment [1], in experiment [2] and in experiment [3] was 101 to 500% each time. In addition, in experiment [4], the “% Act. T384W” value is given as “B (a % activation at 1 μM of from 101 to 500)”.
Take `COc1ccccc1N(C)C1CN(C(=O)c2ccc(NS(=O)(=O)c3cccc4cccnc34)cc2)C1` [drawing 32]: the “% Act. R510Q” value in experiment [1] is “B (a % activation at 1 μM of from 101 to 500)”. Besides, in experiment [2], the “% Act. R532W” value is “A (a % activation at 1 μM of from 1 to 100)”. In addition, the “Act. % WT” value in experiment [3] is recorded as “B (a % activation at 1 μM of from 101 to 500)”. The “% Act. T384W” value in experiment [4] is on record as “B (a % activation at 1 μM of from 101 to 500)”.
For the compound `CC(C)NC(=O)OC1CN(C(=O)c2ccc(NS(=O)(=O)c3cccc4cccnc34)c(F)c2)C1`, the activation at 1 µM in experiment [1] was 101 to 500%; in experiment [2] it was 1 to 100%; in experiment [3], 101 to 500%. Moreover, the “% Act. T384W” value in experiment [4] was “B (a % activation at 1 μM of from 101 to 500)”.
Consider `Cc1cc(C(=O)N2CC(N(C)Cc3ccccc3)C2)ccc1NS(=O)(=O)c1cccc2cccnc12`, for which the activation at 1 µM in experiment [1], in experiment [2] and in experiment [3] was 101 to 500% each time. Moreover, in experiment [4], the “% Act. T384W” value is “A (a % activation at 1 μM of from 1 to 100)”.
Take `Cc1cc(C(=O)N2CC(O)(Cc3ccccc3)C2)ccc1NS(=O)(=O)c1cccc2cccnc12`: the activation at 1 µM in experiment [1] lay in the range of 101 to 500%; in experiment [2], 1 to 100%; in experiment [3], 101 to 500%. In addition, the “% Act. T384W” value in experiment [4] is listed as “B (a % activation at 1 μM of from 101 to 500)”.
For `COc1ncccc1NC1CN(C(=O)c2ccc(NS(=O)(=O)c3cccc4cccnc34)c(C)c2)C1`, the activation at 1 µM in experiment [1], in experiment [2] and in experiment [3] was 101 to 500% in each case. Also, in experiment [4], the “% Act. T384W” value is reported as “B (a % activation at 1 μM of from 101 to 500)”.
As for `COc1cc(NS(=O)(=O)c2cccc3cccnc23)ccc1C(=O)N1CC(O)(Cc2ccccc2)C1`, the activation at 1 µM in experiment [1], in experiment [2] and in experiment [3] was 101 to 500% throughout. For the same compound, the “% Act. T384W” value in experiment [4] is “B (a % activation at 1 μM of from 101 to 500)”.
In the case of `CC(C)NC(=O)NC1CN(C(=O)c2ccc(NS(=O)(=O)c3cccc4cccnc34)cc2)C1`, the activation at 1 µM in experiment [1], in experiment [2] and in experiment [3] was 101 to 500% each time. Also, the “% Act. T384W” value in experiment [4] is on record as “B (a % activation at 1 μM of from 101 to 500)”.
`Cc1cc(C(=O)N2CC(C)(O)C2)ccc1NS(=O)(=O)c1cccc2cccnc12`: the activation at 1 µM in experiment [1], in experiment [2] and in experiment [3] was 101 to 500% throughout. Besides, the “% Act. T384W” value in experiment [4] is given as “B (a % activation at 1 μM of from 101 to 500)”.
As to `O=C(NC1CN(C(=O)c2ccc(NS(=O)(=O)c3cccc4cccnc34)cc2)C1)c1ccccn1` [drawing 8], the activation at 1 µM in experiment [1] and in experiment [3] was 101 to 500% throughout. Also, in experiment [2], the “% Act. R532W” value was “A (a % activation at 1 μM of from 1 to 100)”. Further, in experiment [4], the “% Act. T384W” value is recorded as “B (a % activation at 1 μM of from 101 to 500)”.
`CN(c1ccccc1)C1CN(C(=O)c2ccc(NS(=O)(=O)c3cccc4cccnc34)cc2)C1`: the activation at 1 µM in experiment [1], in experiment [2] and in experiment [3] was 101 to 500% throughout. In experiment [4], the “% Act. T384W” value is “B (a % activation at 1 μM of from 101 to 500)”.
For `C=CCNC(=O)NC1CN(C(=O)c2ccc(NS(=O)(=O)c3cccc4cccnc34)c(OC)c2)C1`, the activation at 1 µM in experiment [1], in experiment [2] and in experiment [3] was 101 to 500% throughout. Also, the “% Act. T384W” value in experiment [4] was “B (a % activation at 1 μM of from 101 to 500)”.
For the compound `O=C(OC1CN(C(=O)c2ccc(NS(=O)(=O)c3cccc4cccnc34)c(F)c2)C1)c1ccccn1`, the activation at 1 µM in experiment [1], in experiment [2] and in experiment [3] was 101 to 500% each time. For the same compound, the “% Act. T384W” value in experiment [4] is reported as “B (a % activation at 1 μM of from 101 to 500)”.
Regarding `O=C(Cc1ccccc1)OC1CN(C(=O)c2ccc(NS(=O)(=O)c3cccc4cccnc34)cc2)C1`, the activation at 1 µM fell in the range of 101 to 500% in experiment [1], 1 to 100% in experiment [2] and 101 to 500% in experiment [3]. Besides, the “% Act. T384W” value in experiment [4] was “B (a % activation at 1 μM of from 101 to 500)”.
Turning to `COc1cc(NS(=O)(=O)c2cccc3cccnc23)ccc1C(=O)N1CC(OC(=O)Nc2ccccn2)C1`, the activation at 1 µM in experiment [1], in experiment [2] and in experiment [3] was 101 to 500% each time. In experiment [4], the “% Act. T384W” value is on record as “B (a % activation at 1 μM of from 101 to 500)”.
Take `Cc1cc(C(=O)N2CC(OC(=O)c3ccccn3)C2)ccc1NS(=O)(=O)c1cccc2cccnc12`: the activation at 1 µM in experiment [1] was in the range of 101 to 500%; in experiment [2], 1 to 100%; in experiment [3] it was 1 to 100%. Also, the “% Act. T384W” value in experiment [4] is “A (a % activation at 1 μM of from 1 to 100)”.
Turning to `Cc1cc(C(=O)N2CC(OC(=O)NC(C)C)C2)ccc1NS(=O)(=O)c1cccc2cccnc12`, the activation at 1 µM in experiment [1], in experiment [2] and in experiment [3] was 101 to 500% throughout. The “% Act. T384W” value in experiment [4] was “A (a % activation at 1 μM of from 1 to 100)”.
Turning to `COc1ccccc1OC1CN(C(=O)c2ccc(NS(=O)(=O)c3cccc4cccnc34)cc2OC)C1`, the figures for the activation at 1 µM in experiment [1], in experiment [2] and in experiment [3] were 1 to 100%, 101 to 500% and 101 to 500%, respectively. For the same compound, the “% Act. T384W” value in experiment [4] is given as “B (a % activation at 1 μM of from 101 to 500)”.
As for `Cc1cc(C(=O)N2CC(NC(=O)NC(C)C)C2)ccc1NS(=O)(=O)c1cccc2cccnc12`, the activation at 1 µM in experiment [1], in experiment [2] and in experiment [3] was 101 to 500% in each case. Moreover, in experiment [4], the “% Act. T384W” value is “B (a % activation at 1 μM of from 101 to 500)”.
In the case of `COc1ccccc1NC1CN(C(=O)c2ccc(NS(=O)(=O)c3cccc4cccnc34)c(F)c2)C1`, the activation at 1 µM in experiment [1], in experiment [2] and in experiment [3] was 1 to 100% throughout. Moreover, the “% Act. T384W” value in experiment [4] was “A (a % activation at 1 μM of from 1 to 100)”.
